# Reference: patent US20090105217A1, “2-PHENYL-5-AMINO-1,3,4-OXADIAZOLES AND THEIR USE AS NICOTINIC ACETYLCHOLINE RECEPTOR LIGANDS” (priority 2007, published 2009)
# Molecular target: T1, human α7 nAChR (Homo sapiens, UniProt P36544)
# T1 construct: host or cells: GH4C1 cells (pituitary tumor, immortalized cell line)
# Experiment: α7 nAChR FLIPR (Fluorometric Imaging Plate Reader) Ca2+ assay, agonist EC50
# Type: cell-based
# Conditions: GH4C1 cells stably transfected with human α7 nAChR; Fluo-4 Ca2+ fluorescence; Examples 194 to 205 tested as the HCl salt; read-out: pEC50 value (negative logarithm of the agonist EC50) (converted)
# In short: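 GH4C1 cells stably expressing human α7 nAChR, loaded with 2 μM Fluo-4 for 45–60 min at 37 °C in HEPES buffer pH 7.3 with 2 mM CaCl2 and 2.5 mM probenecid. Peak calcium fluorescence (ex 488, em 510–580 nm) after compound addition fitted for agonist EC50, reported as pEC50.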
# T1 sequence (P36544 23-502): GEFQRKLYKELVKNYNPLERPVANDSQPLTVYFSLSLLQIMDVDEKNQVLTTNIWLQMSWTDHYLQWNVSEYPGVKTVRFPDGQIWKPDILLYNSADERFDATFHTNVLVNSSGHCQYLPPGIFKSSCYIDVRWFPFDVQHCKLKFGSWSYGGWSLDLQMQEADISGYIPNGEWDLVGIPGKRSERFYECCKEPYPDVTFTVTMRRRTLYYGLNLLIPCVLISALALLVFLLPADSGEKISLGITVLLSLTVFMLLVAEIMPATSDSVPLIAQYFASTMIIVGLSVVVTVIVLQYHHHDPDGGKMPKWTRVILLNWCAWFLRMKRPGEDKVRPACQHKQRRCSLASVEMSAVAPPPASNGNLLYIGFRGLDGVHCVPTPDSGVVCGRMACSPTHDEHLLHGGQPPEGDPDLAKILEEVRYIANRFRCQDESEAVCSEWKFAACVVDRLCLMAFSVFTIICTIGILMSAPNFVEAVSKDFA
row,Compound,EC50 [nM]
1,"CCc1cc(NC(=O)c2ccccc2F)ccc1-c1nnc(NCCCCN(CC)CC)o1 [Example 171, N-[4-(5-{[4-(diethylamino)butyl]amino}-1,3,4-oxadiazol-2-yl)-3-ethylphenyl]-2-fluorobenzamide]",≤ 100
2,"CCOc1cc(NC(=O)C2CCCCC2)ccc1-c1nnc(NCCCN2CCCCC2)o1 [Example 189, N-[3-(ethyloxy)-4-(5-{[3-(1-piperidinyl)propyl]amino}-1,3,4-oxadiazol-2-yl)phenyl]cyclohexane-carboxamide]",≤ 1000
3,"O=C(Nc1ccc(-c2nnc(NCCCN3CCCCC3)o2)cc1)C1CCOCC1 [Example 193, N-[4-(5-{[3-(1-piperidinyl)propyl]amino}-1,3,4-oxadiazol-2-yl)phenyl]tetrahydro-2H-pyran-4-carboxamide]",≤ 1000
4,"CCCC(=O)Nc1ccc(-c2nnc(NCCCN3CCOCC3)o2)c(OC)c1 [Example 199, N-[3-(Methyloxy)-4-(5-{[3-(4-morpholinyl)propyl]amino}-1,3,4-oxadiazol-2-yl)phenyl]butanamide]",≤ 1000
5,"CCCC(=O)Nc1ccc(-c2nnc(NCCCN(CC)CC)o2)c(OC)c1 [Example 200, N-[4-(5-{[3-(Diethylamino)propyl]amino}-1,3,4-oxadiazol-2-yl)-3-(methyloxy)phenyl]butanamide]",≤ 1000
6,"CCN(CC)CCCNc1nnc(-c2ccc(NC(=O)c3ccc(F)cc3)cc2OC)o1 [Example 202, N-[4-(5-{[3-(Diethylamino)propyl]amino}-1,3,4-oxadiazol-2-yl)-3-(methyloxy)phenyl]-4-fluorobenzamide]",≤ 1000
7,"CCN(CC)CCCNc1nnc(-c2ccc(NC(=O)c3cccc(F)c3)cc2OC)o1 [Example 203, N-[4-(5-{[3-(Diethylamino)propyl]amino}-1,3,4-oxadiazol-2-yl)-3-(methyloxy)phenyl]-3-fluorobenzamide]",≤ 1000
8,"COc1cc(NC(=O)c2cccc(F)c2)ccc1-c1nnc(NCCCN2CCOCC2)o1 [Example 204, 3-Fluoro-N-[3-(methyloxy)-4-(5-{[3-(4-morpholinyl)propyl]amino}-1,3,4-oxadiazol-2-yl)phenyl]benzamide]",≤ 1000
9,"CCN(CC)CCCNc1nnc(-c2ccc(NC(=O)c3ccc(OC)cc3)cc2OC)o1 [Example 225, N-[4-(5-{[3-(diethylamino)propyl]amino}-1,3,4-oxadiazol-2-yl)-3-(methyloxy)phenyl]-4-(methyloxy)benzamidetrifluoroacetate]",≤ 1000
10,"COc1cc(NC(=O)c2c(F)cccc2F)ccc1-c1nnc(NCCCN2CCOCC2)o1 [Example 226, 2,6-difluoro-N-[3-(methyloxy)-4-(5-{[3-(4-morpholinyl)propyl]amino}-1,3,4-oxadiazol-2-yl)phenyl]benzamidetrifluoroacetate]",≤ 1000
11,"COc1cc(NC(=O)CC(C)C)ccc1-c1nnc(NCCCN2CCOCC2)o1 [Example 229, 3-methyl-N-[3-(methyloxy)-4-(5-{[3-(4-morpholinyl)propyl]amino}-1,3,4-oxadiazol-2-yl)phenyl]butanamidetrifluoroacetate]",≤ 1000
12,"CCN(CC)CCCNc1nnc(-c2ccc(NC(=O)CC(C)C)cc2OC)o1 [Example 230, N-[4-(5-{[3-(diethylamino)propyl]amino}-1,3,4-oxadiazol-2-yl)-3-(methyloxy)phenyl]-3-methylbutanamidetrifluoroacetate]",≤ 1000
13,"CCN(CC)CCCNc1nnc(-c2ccc(NC(=O)C3CC3)cc2OC)o1 [Example 231, N-[4-(5-{[3-(diethylamino)propyl]amino}-1,3,4-oxadiazol-2-yl)-3-(methyloxy)phenyl]cyclopro-panecarboxamidetrifluoroacetate]",≤ 1000
14,"COc1cc(NC(=O)C2CCCC2)ccc1-c1nnc(NCCCN2CCOCC2)o1 [Example 234, N-[3-(methyloxy)-4-(5-{[3-(4-morpholinyl)propyl]amino}-1,3,4-oxadiazol-2-yl)phenyl]cyclopentane-carboxamidetrifluoroacetate]",≤ 1000
15,"CCN(CC)CCCNc1nnc(-c2ccc(NC(=O)C3CCCC3)cc2OC)o1 [Example 235, N-[4-(5-{[3-(diethylamino)propyl]amino}-1,3,4-oxadiazol-2-yl)-3-(methyloxy)phenyl]cyclo-pentanecarboxamidetrifluoroacetate]",≤ 1000

# Next, values leading:
row,EC50 [nM],Compound
1,≤ 100,"CCc1cc(NC(=O)c2ccccc2F)ccc1-c1nnc(NCCCN2CCN3CCC2CC3)o1 [Example 169, N-[4-(5-{[3-(1,4-diazabicyclo[3.2.2]non-4-yl)propyl]amino}-1,3,4-oxadiazol-2-yl)-3-ethylphenyl]-2-fluorobenzamide]"
2,≤ 100,"CCc1cc(NC(=O)c2ccccc2F)ccc1-c1nnc(NCCCCN2CCCC2)o1 [Example 170, N-[3-ethyl-4-(5-{[4-(1-pyrrolidinyl)butyl]amino}-1,3,4-oxadiazol-2-yl)phenyl]-2-fluorobenzamide]"
3,≤ 100,"CCc1cc(NC(=O)c2ccccc2F)ccc1-c1nnc(NCCCCN2CCOCC2)o1 [Example 172, N-[3-ethyl-4-(5-{[4-(4-morpholinyl)butyl]amino}-1,3,4-oxadiazol-2-yl)phenyl]-2-fluorobenzamide]"
4,≤ 1000,"CN1CCCN(CCCNc2nnc(-c3ccc(NC(=O)c4ccccc4F)cc3)o2)CC1 [Example 174, 2-fluoro-N-[4-(5-{[3-(4-methylhexahydro-1H-1,4-diazepin-1-yl)propyl]amino}-1,3,4-oxadiazol-2-yl)phenyl]benzamide]"
5,≤ 1000,"Cc1ccc(C(=O)Nc2ccc(-c3nnc(NCCCN4CCCCC4)o3)cc2)cc1 [Example 181, 4-methyl-N-[4-(5-{[3-(1-piperidinyl)propyl]amino}-1,3,4-oxadiazol-2-yl)phenyl]benzamide]"
6,≤ 1000,"Cc1cc(C(=O)Nc2ccc(-c3nnc(NCCCN4CCCCC4)o3)cc2)no1 [Example 183, 5-methyl-N-[4-(5-{[3-(1-piperidinyl)propyl]amino}-1,3,4-oxadiazol-2-yl)phenyl]-3-isoxazolecarboxamide]"
7,≤ 1000,"O=C(Nc1ccc(-c2nnc(NCCCN3CCCCC3)o2)cc1)c1ccco1 [Example 185, N-[4-(5-{[3-(1-piperidinyl)propyl]amino}-1,3,4-oxadiazol-2-yl)phenyl]-2-furancarboxamide]"
8,≤ 100,"CCOc1cc(NC(=O)c2ccccc2)ccc1-c1nnc(NCCCN2CCCCC2)o1 [Example 190, N-[3-(ethyloxy)-4-(5-{[3-(1-piperidinyl)propyl]amino}-1,3,4-oxadiazol-2-yl)phenyl]benzamide]"
9,≤ 1000,"O=C(Nc1ccc(-c2nnc(NCCCN3CCOCC3)o2)cc1)c1c(F)cccc1F [Example 194, 2,6-Difluoro-N-[4-(5-{[3-(4-morpholinyl)propyl]amino}-1,3,4-oxadiazol-2-yl)phenyl]benzamide]"
10,≤ 1000,"O=C(Nc1ccc(-c2nnc(NCCCN3CCOCC3)o2)cc1)c1cccc(F)c1 [Example 195, 3-Fluoro-N-[4-(5-{[3-(4-morpholinyl)propyl]amino}-1,3,4-oxadiazol-2-yl)phenyl]benzamide]"
11,≤ 1000,"CCN(CC)CCCNc1nnc(-c2ccc(NC(=O)c3cccc(F)c3)cc2)o1 [Example 209, N-[4-(5-{[3-(diethylamino)propyl]amino}-1,3,4-oxadiazol-2-yl)phenyl]-3-fluorobenzamidetrifluoroacetate]"

# Same assay, conditions: alpha 7 assay described in the Examples
row,activity in the alpha 7 assay,Compound
1,not found to have activity,"CN(C)CCCN(C)c1nnc(-c2ccc(NC(=O)c3ccccc3F)cc2)o1 [N-(4-{5-[[3-(dimethylamino)propyl](methyl)amino]-1,3,4-oxadiazol-2-yl}phenyl)-2-fluorobenzamide]"
2,not found to have activity,"O=C(Nc1ccc(-c2nnc(NCCCN3CCCC(F)(F)C3)o2)cc1)c1ccccc1F [N-[4-(5-{[3-(3,3-difluoro-1-piperidinyl)propyl]amino}-1,3,4-oxadiazol-2-yl)phenyl]-2-fluorobenzamide]"
3,not found to have activity,"CCN(CC)CCCNc1nnc(-c2ccc(NC(=O)c3ccc(OC)cc3)cc2)o1 [N-[4-(5-{[3-(Diethylamino)propyl]amino}-1,3,4-oxadiazol-2-yl)phenyl]-4-(methyloxy)benzamide]"
4,not found to have activity,"CCCN(CCC)CCCNc1nnc(-c2ccc(NC(=O)c3ccccc3F)cc2)o1 [N-[4-(5-{[3-(dipropylamino)propyl]amino}-1,3,4-oxadiazol-2-yl)phenyl]-2-fluorobenzamide]"
